Results reported in US6737383B1, “Herbicidal oxadiazolidines” (priority 1999, dated 2004).

Experiments:
corn = assay: Test B pre/postemergence corn; assay type: in vivo, Zea mays
Outline: (§1)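 Herbicidal effect was estimated by eye on a ten-point control scale after plants spent twelve to sixteen days in a greenhouse following soil or foliar treatment. Foliar sprays targeted plants at one to four leaves; all doses were formulated in a non-phytotoxic solvent with surfactant.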

rape = assay: Test B pre/postemergence rape; assay type: in vivo, Brassica napus
Outline: as §1

soybean = assay: Test B pre/postemergence soybean; assay type: in vivo, Glycine max
Outline: as §1

pigweed = assay: Test B pre/postemergence pigweed; assay type: in vivo, Amaranthus retroflexus
Outline: as §1

wheat = assay: Test B pre/postemergence wheat; assay type: in vivo, Triticum aestivum
Outline: as §1

surinam grass = assay: Test B pre/postemergence surinam grass; assay type: in vivo, Brachiaria decumbens
Outline: as §1

smallflower flatsedge = assay: Test B flood test smallflower flatsedge; assay type: in vivo, Cyperus difformis
Outline: (§2)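 Each value is a visual injury score relative to controls, with 10 meaning complete control and 0 no effect. Evaluation took place twelve to sixteen days after the 2-leaf-stage plants were treated and kept in the greenhouse.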

wild oat = assay: Test B pre/postemergence wild oat; assay type: in vivo, Avena fatua
Outline: as §1

crabgrass = assay: Test B pre/postemergence crabgrass; assay type: in vivo, Digitaria sanguinalis
Outline: as §1

rice = assay: Test B flood test rice; assay type: in vivo, Oryza sativa
Outline: as §2

purple nutsedge = assay: Test B pre/postemergence purple nutsedge; assay type: in vivo, Cyperus rotundus
Outline: as §1

velvetleaf = assay: Test B pre/postemergence velvetleaf; assay type: in vivo, Abutilon theophrasti
Outline: as §1

sugar beet = assay: Test B pre/postemergence sugar beet; assay type: in vivo, Beta vulgaris
Outline: as §1

duck salad = assay: Test B flood test duck salad; assay type: in vivo, Heteranthera limosa
Outline: as §2

blackgrass = assay: Test B pre/postemergence blackgrass; assay type: in vivo, Alopecurus myosuroides
Outline: as §1

bedstraw = assay: Test B pre/postemergence bedstraw; assay type: in vivo, Galium aparine
Outline: as §1

[1] = Preemergence, Rate 62 g/ha, scale of 0 to 10 where 0 is no effect and 10 is complete control
[2] = Preemergence, Rate 250 g/ha, scale of 0 to 10 where 0 is no effect and 10 is complete control
[3] = Preemergence, Rate 500 g/ha, scale of 0 to 10 where 0 is no effect and 10 is complete control
[4] = Rate 62 g/ha, Postemergence, scale 0 to 10 (0 no effect, 10 complete control)
[5] = Rate 125 g/ha, Postemergence, scale of 0 to 10 where 0 is no effect and 10 is complete control
[6] = Rate 250 g/ha, Postemergence, scale of 0 to 10 where 0 is no effect and 10 is complete control
[7] = Rate 500 g/ha, Postemergence, scale 0 to 10, 0 no effect, 10 complete control
[8] = Rate 62 g/ha, headed Pre-emergence (flood test species), scale 0 to 10 (0 no effect, 10 complete control)
[9] = Rate 125 g/ha, Pre-emergence, flood test species, scale 0 to 10 where 0 is no effect and 10 is complete control
[10] = Rate 250 g/ha, Pre-emergence, flood-test species, scale 0 to 10, 0 is no effect, 10 is complete control
[11] = Rate 500 g/ha, Pre-emergence, flood test species, scale 0 to 10 (0 no effect, 10 complete control)

CC(C)N(C(=O)n1oc(=O)n(CCCN(C)C)c1=O)c1ccc(F)cc1 [Compound 323]
Corn plant response rating (corn; [1]): 0
Corn plant response rating (0 to 10 scale) (corn; Preemergence, Rate 125 g/ha): 0
Corn plant response rating (corn; [2]): 0
Corn plant response rating (corn; [3]): 0
Corn plant response rating (corn; [4]): 0
Corn plant response rating (corn; [5]): 0
Plant response rating, Corn (corn; [6]): 0
Plant response rating, Corn (corn; [7]): 0
Rape plant response rating (rape; [1]): 0
Rape plant response rating (0 to 10 scale) (rape; Preemergence, Rate 125 g/ha): 0
Rape plant response rating (rape; [2]): 0
Rape plant response rating (rape; [3]): 0
Rape plant response rating (rape; [4]): 0
Rape plant response rating (rape; [5]): 0
Plant response rating, Rape (rape; [6]): 0
Plant response rating, Rape (rape; [7]): 0
Soybean plant response rating (soybean; [1]): 0
Soybean plant response rating (0 to 10 scale) (soybean; Preemergence, Rate 125 g/ha): 0
Soybean plant response rating (soybean; [2]): 0
Soybean plant response rating (soybean; [3]): 0
Soybean plant response rating (soybean; [4]): 0
Soybean plant response rating (soybean; [5]): 1
Plant response rating, Soybean (soybean; [6]): 2
Plant response rating, Soybean (soybean; [7]): 2
Redroot pigweed plant response rating (pigweed; [1]): 0
Redroot pigweed plant response rating (0 to 10 scale) (pigweed; Preemergence, Rate 125 g/ha): 0
Redroot pigweed plant response rating (pigweed; [2]): 0
Redroot pigweed plant response rating (pigweed; [3]): 0
Redroot pigweed plant response rating (pigweed; [4]): 0
Redroot pigweed plant response rating (pigweed; [5]): 0
Plant response rating, Redroot pigweed (pigweed; [6]): 0
Plant response rating, Redroot pigweed (pigweed; [7]): 0
Wheat plant response rating (wheat; [1]): 0
Wheat plant response rating (0 to 10 scale) (wheat; Preemergence, Rate 125 g/ha): 0
Wheat plant response rating (wheat; [2]): 0
Wheat plant response rating (wheat; [3]): 0
Wheat plant response rating (wheat; [4]): 0
Wheat plant response rating (wheat; [5]): 0
Plant response rating, Wheat (wheat; [6]): 0
Plant response rating, Wheat (wheat; [7]): 0
B. signalgrass plant response rating (surinam grass; [1]): 0
B. signalgrass plant response rating (0 to 10 scale, 0 is no effect, 10 is complete control) (surinam grass; Preemergence, Rate 125 g/ha): 0
B. signalgrass plant response rating (surinam grass; [2]): 0
B. signalgrass plant response rating (surinam grass; [3]): 0
B. signalgrass plant response rating (surinam grass; [4]): 0
B. signalgrass plant response rating (surinam grass; [5]): 0
Plant response rating, B. signalgrass (surinam grass; [6]): 0
Plant response rating, B. signalgrass (surinam grass; [7]): 0
S. Flatsedge plant response rating (smallflower flatsedge; [8]): 0
S. Flatsedge plant response rating (smallflower flatsedge; [9]): 0
S. Flatsedge plant response rating (smallflower flatsedge; [10]): 0
S. Flatsedge plant response rating (smallflower flatsedge; [11]): 0
Wild oats plant response rating (wild oat; [1]): 0
Wild oats plant response rating (0 to 10 scale) (wild oat; Preemergence, Rate 125 g/ha): 0
Wild oats plant response rating (wild oat; [2]): 0
Wild oats plant response rating (wild oat; [3]): 0
Wild oats plant response rating (wild oat; [4]): 0
Wild oats plant response rating (wild oat; [5]): 0
Plant response rating, Wild oats (wild oat; [6]): 0
Plant response rating, Wild oats (wild oat; [7]): 0
Crabgrass plant response rating (crabgrass; [1]): 0
Crabgrass plant response rating (0 to 10 scale) (crabgrass; Preemergence, Rate 125 g/ha): 0
Crabgrass plant response rating (crabgrass; [2]): 0
Crabgrass plant response rating (crabgrass; [3]): 2
Crabgrass plant response rating (crabgrass; [4]): 0
Crabgrass plant response rating (crabgrass; [5]): 0
Plant response rating, Crabgrass (crabgrass; [6]): 0
Plant response rating, Crabgrass (crabgrass; [7]): 0
Rice plant response rating (rice; [8]): 0
Rice plant response rating (rice; [9]): 0
Rice plant response rating (rice; [10]): 0
Rice plant response rating (rice; [11]): 0
Nutsedge plant response rating (purple nutsedge; [1]): 0
Nutsedge plant response rating (0 to 10 scale) (purple nutsedge; Preemergence, Rate 125 g/ha): 0
Nutsedge plant response rating (purple nutsedge; [3]): 0
Nutsedge plant response rating (purple nutsedge; [4]): 0
Nutsedge plant response rating (purple nutsedge; [5]): 0
Plant response rating, Nutsedge (purple nutsedge; [6]): 0
Plant response rating, Nutsedge (purple nutsedge; [7]): 0
Velvetleaf plant response rating (velvetleaf; [1]): 0
Velvetleaf plant response rating (0 to 10 scale) (velvetleaf; Preemergence, Rate 125 g/ha): 0
Velvetleaf plant response rating (velvetleaf; [2]): 0
Velvetleaf plant response rating (velvetleaf; [3]): 0
Velvetleaf plant response rating (velvetleaf; [4]): 0
Velvetleaf plant response rating (velvetleaf; [5]): 0
Plant response rating, Velvetleaf (velvetleaf; [6]): 0
Plant response rating, Velvetleaf (velvetleaf; [7]): 0
Sugarbeets plant response rating (sugar beet; [1]): 0
Sugarbeets plant response rating (0 to 10 scale) (sugar beet; Preemergence, Rate 125 g/ha): 0
Sugarbeets plant response rating (sugar beet; [2]): 0
Sugarbeets plant response rating (sugar beet; [3]): 0
Sugarbeets plant response rating (sugar beet; [4]): 0
Sugarbeets plant response rating (sugar beet; [5]): 0
Plant response rating, Sugarbeets (sugar beet; [6]): 0
Plant response rating, Sugarbeets (sugar beet; [7]): 0
Ducksalad plant response rating (duck salad; [8]): 0
Ducksalad plant response rating (duck salad; [9]): 0
Ducksalad plant response rating (duck salad; [10]): 0
Ducksalad plant response rating (duck salad; [11]): 0
Blackgrass plant response rating (blackgrass; [1]): 0
Blackgrass plant response rating (0 to 10 scale) (blackgrass; Preemergence, Rate 125 g/ha): 0
Blackgrass plant response rating (blackgrass; [2]): 0
Blackgrass plant response rating (blackgrass; [3]): 0
Blackgrass plant response rating (blackgrass; [4]): 0
Blackgrass plant response rating (blackgrass; [5]): 0
Plant response rating, Blackgrass (blackgrass; [6]): 0
Plant response rating, Blackgrass (blackgrass; [7]): 0
Bedstraw plant response rating (bedstraw; [1]): 0
Bedstraw plant response rating (0 to 10 scale) (bedstraw; Preemergence, Rate 125 g/ha): 0
Bedstraw plant response rating (bedstraw; [2]): 0
Bedstraw plant response rating (bedstraw; [4]): 0
Bedstraw plant response rating (bedstraw; [5]): 0
